Test results from PMC3388883, “Parallel and four-step synthesis of natural-product-inspired scaffolds through modular assembly and divergent cyclization” (Beilstein Journal of Organic Chemistry, 2012).
≈ marks a conversion by molar mass, not a printed value. Like-named read-outs stand apart in the source and are kept apart here.

Legend:
[1] = Cytotoxicity on MRC-5 cells (MTT assay); format: cell-based; conditions: human, MRC-5 cells (human diploid embryonic cell line)
Procedure: (§1) Cytotoxicity tests on MRC-5 cells
(§2) The human diploid embryonic cell line, MRC-5, was a generous gift from Dr. L. Maes (Tibotec NV, Mechelen, Belgium). Cytotoxicity of the test compound was measured by the colorimetric MTT assay [Mossman, T. J. Immunol. Methods 1983, 65, 55 and Otoguro, K. et al. ATLA:Alternatives to Laboratory Animals 1991, 19, 352] in 96-well microplates. In brief, 100 μL of MRC-5 cell suspension was added to 96-well microplates at 1 × 10^3 cells/well and the cells were cultured for 24 h. Then, 90 μL of standard culture medium (MEM + 10% FCS) with or without 10 μL of test compound solution that was dissolved in 25% ethanol or 5% DMSO was added to each well.
(§3) Further incubation was conducted at 37 °C under 5% CO2–95% air for 7 days and then 20 μL of MTT–PBS solution (5 mg/mL) was added to each well. The microplate was incubated at 37 °C for 4 h under 5% CO2–95% air. Then, the incubation medium was aspirated and 100 μL of DMSO was added to solubilize the MTT formazan product. After mixing, absorbance at 540 nm was measured with iEMS microplate reader MF. The IC50 value was estimated from the dose–response curve.

[2] = system: T. brucei brucei GUTat 3.1; assay: In vitro anti-trypanosomal activity (Alamar Blue); format: cell-based, Trypanosoma brucei brucei; conditions: for Selectivity Index (SI): (IC50 for MRC-5)/(IC50 for T. brucei brucei); for IC50: Trypanosoma brucei, read-out: IC50 anti-trypanosomal activity; for IC50 / IC50 anti-trypanosomal activity: 72 h
Procedure: With collections of the natural-product-inspired molecules in hand, in vitro anti-trypanosomal activities were evaluated by employing a GUTat 3.1 strain of T. brucei brucei (Table 1) according to the previously reported protocols (Supporting Information File 1). […] Thus, this preliminary assessment supports the idea that the collections of natural-product-inspired scaffolds could have high hit rates against biological screenings, even without having structural information about the biological targets and small-molecule modulators related to the targeted cellular functions. Further screening investigations of the synthetic collections prepared in the four-step process are currently underway in our laboratories.
Assay for in vitro anti-trypanosomal activity against T. brucei species According to a procedure previously used in [Toriizuka et al. Bioorg. Med. Chem. 2008, 16, 10182–10189.], Trypanosoma brucei brucei strain GUTat 3.1 (Glasgow University, Trypanozoon antigenic type 3.1) was generously donated from Dr. Y. Yabu (Nagoya City University). T. brucei brucei GUTat 3.1 strain was cultured in IMDM with 3.024 g/L NaHCO3, 100 μM hypoxanthine, 30 μM thymidine, 40 μM adenosine, 1.0 mM sodium pyruvate, 50 μM L-glutamine, 100 μM 2-mercaptoethanol, 50 U/mL of penicillin, and 50 μg/mL of streptomycin containing 10% heat-inactivated FBS at 37 °C, under 5.0% CO2–95% air, according to the protocol of [Yabu et al.
Southeast Asian J. Trop. Med. Public Health 1998, 29, 591]. In vitro antitrypanosomal activity of the test compounds was evaluated from a dose–response curve utilizing the fluorescent dye, Alamar Blue, according to the method of [Räz et al. Acta Trop. 1997, 68, 139 and Tasdemir et al.
Antimicrob. Agents Chemother. 2006, 50, 1352] with some modifications. Ninety-five microliters of trypanosome suspension ([…] trypanosomes/mL for GUTat 3.1 strain) of bloodstream forms was seeded into a 96-well microplate and 5.0 μL of test compound solution (dissolved in 5.0% dimethylsulfoxide: DMSO) was added. After incubating for 72 h at 37 °C under 5.0% CO2–95% air, 10 μL of Alamar Blue was added to each well. After further incubation for 3–6 h at 37 °C under 5.0% CO2–95% air, the microplate was measured at 528/20 nm excitation wavelength and 590/35 nm emission wavelength with an FLx800 fluorescent plate reader (Bio-Tek Instrument, Inc.Vermont, USA). Data were transferred into a graphic program (Excel) and the 50% inhibitory concentration (IC50) values were determined with fluorescent plate reader software (KC-4, […]
as §1, §2, §3

[3] = T. brucei brucei GUTat 3.1 strain, 2.0–2.5 × 10^4 trypanosomes/mL
[4] = T. brucei brucei GUTat 3.1 strain

| IC50 [2, 3] [µg/mL] | IC50 anti-trypanosomal activity [2, 3] [µg/mL] | SMILES | IC50 at 7 days [1] [µg/mL] | Selectivity Index (SI) [2] | antitrypanosomal activity (in words) [2, 4] | IC50 [2] [µg/mL] |
| --- | --- | --- | --- | --- | --- | --- |
| 5.9 (≈ 7.64 µM) | – | COc1ccc(CN2C(=O)[C@@]3(C)CCCN4C(=O)[C@]5(C(C)=O)O[C@@]43[C@@]3(c4ccccc4N(S(=O)(=O)c4ccccc4[N+](=O)[O-])[C@H]53)[C@@H]2C(=O)NC(C)(C)C)cc1 (racemic) [25a] | 24.5 (≈ 31.7 µM) | 4.1 | – | – |
| > 12.5 | – | COc1ccc(CN2C(=O)[C@@]3(C)CCCN4C(=O)[C@]5(C(C)=O)O[C@@]43[C@@]3(c4ccccc4N(S(=O)(=O)c4ccccc4[N+](=O)[O-])[C@H]53)[C@H]2C(=O)NC(C)(C)C)cc1 (racemic) [25b] | – | – | negligible | – |
| – | – | CC(=O)[C@@]12O[C@@]34N(CCC[C@]3(C)C(=O)N([C@H](C(=O)NC(C)(C)C)c3cn(S(=O)(=O)c5ccccc5[N+](=O)[O-])c5ccccc35)C[C@]43c4ccccc4N(S(=O)(=O)c4ccccc4[N+](=O)[O-])[C@H]13)C2=O [30b] | – | – | negligible | > 12.5 |
| – | >12.5 | CC(=O)C12CC3CN(C(C(=O)NC(C)(C)C)c4cn(S(=O)(=O)c5ccccc5[N+](=O)[O-])c5ccccc45)C(=O)C4(C)CCCN(C1=O)C34O2 (stereo not shown) [39a] | – | – | negligible activities | – |
| – | 0.46 (≈ 0.665 µM) | CC(=O)C12CC3CN(C(C(=O)NC(C)(C)C)c4cn(S(=O)(=O)c5ccccc5[N+](=O)[O-])c5ccccc45)C(=O)C4(C)CCCN(C1=O)C34O2 (stereo not shown) [39b] | 4.02 (≈ 5.81 µM) | 8.7 | – | – |
| > 12.5 | – | CC(=O)[C@@]12C[C@@H]3CN([C@H](C(=O)NC(C)(C)C)c4c[nH]c5ccccc45)C(=O)[C@@]4(C)CCCN(C1=O)[C@@]34O2 [39c] | – | – | substantial loss of the activities | – |
| 5.89 (≈ 8.18 µM) | – | CC(=O)[C@]12O[C@]34[C@@H](CN([C@H](C(=O)NC(C)(C)C)c5cn(S(=O)(=O)c6ccccc6[N+](=O)[O-])c6ccccc56)C(=O)[C@@]3(C)CCCN4C1=O)C2(C)C [41b] | 34.6 (≈ 48.1 µM) | 5.9 | – | – |
| – | – | CC(=O)[C@@]12O[C@@]34N(CCC[C@]3(C)N([C@@H](CC(C)C)C(=O)NC(C)(C)C)C(=O)[C@]43c4ccccc4N(S(=O)(=O)c4ccccc4[N+](=O)[O-])[C@H]13)C2=O [63a] | – | – | insignificant activities | – |
| – | – | CC(=O)C12OC34N(CCCC3(C)N(C(CC(C)C)C(=O)NC(C)(C)C)C(=O)C43c4ccccc4N(S(=O)(=O)c4ccccc4[N+](=O)[O-])C13)C2=O (stereo not shown) [63b] | – | – | insignificant activities | – |
| 2.27 (≈ 12.5 µM) | – | NCCCC(N)(C(=O)O)C(F)F (stereo not shown) [eflornithine, reference compound] | > 100 | >44 | – | – |
| 0.00158 (≈ 0.00464 µM) | – | N=C(N)c1ccc(OCCCCCOc2ccc(C(=N)N)cc2)cc1 [pentamidine, reference compound] | 5.71 (≈ 16.8 µM) | 3600 | – | – |
| – | – | Cc1ccc(C(=O)Nc2ccc(S(=O)(=O)O)c3cc(S(=O)(=O)O)cc(S(=O)(=O)O)c23)cc1NC(=O)c1cccc(NC(=O)Nc2cccc(C(=O)Nc3cc(C(=O)Nc4ccc(S(=O)(=O)O)c5cc(S(=O)(=O)O)cc(S(=O)(=O)O)c45)ccc3C)c2)c1 [suramin, reference compound] | > 100 | >63 | – | 1.58 (≈ 1.22 µM) |
